Assay results from US8796273B2, “Compound for the treatment of enteroviruses” (priority 2010, dated 2014).

Columns and labels:
Enterovirus 71 (EV71) = test: microbe, parasite or virus in culture; type: cell-based, Human enterovirus A; conditions: Enterovirus A, EV71, read-out: EC50, replication of Enterovirus 71 (EV71)
Poliovirus 1 (PV1) = test: microbe, parasite or virus in culture; type: cell-based, Human enterovirus C; conditions: Enterovirus C, read-out: EC50, replication of Poliovirus 1 (PV1)

Row | Compound | EC50 (Enterovirus 71 (EV71)) [nM] | EC50 (Poliovirus 1 (PV1)) [nM]
1 | CCOC(=O)/C=C/[C@H](C[C@@H]1CCNC1=O)NC(=O)[C@@H](CC(=O)[C@@H](NC(=O)c1cc(C)on1)C(C)C)Cc1ccc(F)cc1 [Rupintrivir] | 900 ± 70 | 4500 ± 360
2 | Cc1cc(CCCOc2c(C)cc(-c3noc(C(F)(F)F)n3)cc2C)on1 [Pleconaril] | > 300000 | > 300000
3 | CC(C)S(=O)(=O)n1c(N)nc2ccc(/C(=N/O)c3ccccc3)cc21 [Enviroxime] | 450 ± 120 | 790 ± 130
4 | COc1ccc(OCc2ccc(COc3c(Cl)cccc3Cl)cc2)c(Cl)c1 [Compound V-073, V-073] | > 300000 | 26 ± 23
